Here are results for 21 compounds from patent US20240101544A1, “INHIBITORS OF QPCTL AND QPCT” (priority 2022, published 2024).

The target of test [1] is T1, QPCTL (Homo sapiens (Human), UniProt Q9NXS2). Put plainly: Inhibition of Cellular QPCTL Activity - Imaging Assay, CC2C6 anti-CD47 staining of DLD-1 cells. Conditions: 72 hours, CC2C6 anti-CD47 high-content imaging. The test is classed as cell-based. Here is the method: Inhibition of Cellular QPCTL Activity—Imaging Assay
The cells were incubated for 72 hours at 37° C. and 5% CO2. […] After primary antibody staining, the cells were fixed with 4% paraformaldehyde in the incubation buffer for 15 minutes at room temperature. […] Cells were analyzed on a ImageXpress Pico Automated Cell Imaging System (Molecular Devices) using 10× objective (3×3 fields).
Target sequence in this assay (Q9NXS2 whole entry): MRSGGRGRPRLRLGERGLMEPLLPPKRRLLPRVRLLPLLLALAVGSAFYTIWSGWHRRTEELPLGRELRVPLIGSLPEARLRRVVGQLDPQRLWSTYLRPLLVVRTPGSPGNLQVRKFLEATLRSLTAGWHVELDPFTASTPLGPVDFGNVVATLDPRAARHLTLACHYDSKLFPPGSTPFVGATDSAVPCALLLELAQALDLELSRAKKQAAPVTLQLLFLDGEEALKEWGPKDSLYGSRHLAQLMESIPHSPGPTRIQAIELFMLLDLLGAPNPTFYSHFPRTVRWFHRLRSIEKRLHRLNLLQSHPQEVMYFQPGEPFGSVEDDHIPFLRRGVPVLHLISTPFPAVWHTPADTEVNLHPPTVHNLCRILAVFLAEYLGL

Test [2] concerns the target T1, QPCTL. As to the kind of experiment: QPCTL Enzymatic Activity Assay (coupled-enzyme fluorescent assay, H-Gln-AMC substrate). In kind it is biochemical. Particulars: recombinant truncated human QPCTL 10-12 nM, 10 μM H-Gln-AMC; read-out: QPCTL Inhibition IC50. The method, then: Protein expression was induced when the bacterial culture OD600 was approximately 0.7 using 1 mM IPTG and the cells incubated at 20° C. for approximately 16 hours. The QPCTL was purified using nickel column purification, digested by TEV, followed by a second nickel column purification. The protein was further purified by size-exclusion chromatography using a Superdex™ 75 column. The final protein was concentrated using ultrafiltration tubes at a molecular weight cutoff of 10 kilodaltons and stored frozen in protein buffer (25 mM Tris pH 8.3, 150 mM NaCl).
QPCTL activity was measured in a coupled-enzyme assay using the QPCTL substrate, glutamine-7-amido-4-methylcoumarin (H-Gln-AMC, Bachem), which is converted to pyroglutamyl-AMC by QPCTL. Pyroglutamyl-AMC is then converted to the fluorescent molecule, AMC, by incubation with the human enzyme pyroglutamyl peptidase-1. […] Final concentrations of DMSO and test compounds were 2% and 30-100 μM, respectively. Following the incubation, H-Gln-AMC substrate was diluted in assay buffer and added to each well for a final concentration of 10 μM. The reaction was incubated for 60 min at 37° C., before stopping it by boiling at 100° C. for 5 minutes and cooling the plate at 4° C. for 3 minutes. […] Following incubation, the fluorescence was measured with a plate reader using excitation at 380 nm and emission at 460 nm. […] Concentration-response-curves and IC50 values (Table 17) were generated using curve fit software.
Target sequence in this assay (Q9NXS2 53-382): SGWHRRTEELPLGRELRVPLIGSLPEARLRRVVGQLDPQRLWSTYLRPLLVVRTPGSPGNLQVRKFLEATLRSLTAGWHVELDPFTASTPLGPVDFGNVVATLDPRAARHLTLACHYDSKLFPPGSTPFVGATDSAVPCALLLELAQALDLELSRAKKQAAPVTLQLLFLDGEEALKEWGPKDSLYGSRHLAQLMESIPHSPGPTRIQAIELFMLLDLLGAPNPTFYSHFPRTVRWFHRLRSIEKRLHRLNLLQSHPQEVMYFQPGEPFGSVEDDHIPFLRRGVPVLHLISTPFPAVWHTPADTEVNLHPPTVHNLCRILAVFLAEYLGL

The next test has as its target QPCT (rhQPCT) (Homo sapiens (Human), UniProt Q16769). As to the kind of experiment: QPCT Enzymatic Activity Assay (coupled-enzyme fluorescent assay, H-Gln-AMC substrate). In kind it is biochemical. Conditions: rhQPCT 10-12 nM, 10 μM H-Gln-AMC; read-out: QPCT Inhibition IC50. Here is the method:
QPCT activity was measured in a coupled-enzyme assay using the QPCT substrate, glutamine-7-amido-4-methylcoumarin (H-Gln-AMC, Bachem), which is converted to pyroglutamyl-AMC by QPCT. Pyroglutamyl-AMC is then converted to the fluorescent molecule, AMC, by incubation with the human enzyme pyroglutamyl peptidase-1 (PGPEP-1). […] Following the incubation, H-Gln-AMC substrate was diluted in assay buffer and added to each well for a final concentration of 10 μM. The reaction was incubated for 60 min at 37° C., before stopping it by boiling at 100° C. for 5 minutes and cooling the plate at 4° C. for 3 minutes. […] Following incubation, the fluorescence was measured with a plate reader using excitation at 380 nm and emission at 460 nm. […] Concentration-response-curves and IC50 values (Table 17) were generated using Collaborative Drug Discovery software.

By IC50 is commonly meant the concentration needed to halve the response being measured.

Chain of QPCT (rhQPCT) (Q16769 29-361): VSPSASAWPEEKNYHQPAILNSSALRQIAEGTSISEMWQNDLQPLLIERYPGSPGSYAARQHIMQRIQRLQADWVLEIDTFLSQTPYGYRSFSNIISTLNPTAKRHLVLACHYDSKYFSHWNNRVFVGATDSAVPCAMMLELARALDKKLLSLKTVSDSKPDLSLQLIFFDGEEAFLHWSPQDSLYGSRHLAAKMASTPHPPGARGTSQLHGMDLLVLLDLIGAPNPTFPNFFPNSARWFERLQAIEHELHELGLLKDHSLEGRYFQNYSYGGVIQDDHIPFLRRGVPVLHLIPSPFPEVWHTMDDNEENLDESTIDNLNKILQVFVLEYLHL

In the case of `Cn1cnnc1C1CCN(c2c(-c3ccc(F)nc3)ccc(OC3CCOC3)c2C#N)CC1` (single isomer, unassigned) [Example 88, 3-(6-fluoropyridin-3-yl)-2-(4-(4-methyl-4H-1,2,4-triazol-3-yl)piperidin-1-yl)-6-((tetrahydrofuran-3-yl)oxy)benzonitrile], the IC50 at QPCTL [1], on QPCTL [2] and on QPCT (rhQPCT) was less than 0.1 µM each time.

Take `CN1CCC(Oc2ccc(-c3ccc(F)nc3)c(N3CCC(c4nncn4C)CC3)c2C#N)C1` (single isomer, unassigned) [Example 90, 3-(6-fluoropyridin-3-yl)-2-(4-(4-methyl-4H-1,2,4-triazol-3-yl)piperidin-1-yl)-6-((1-methylpyrrolidin-3-yl)oxy)benzonitrile]: the IC50 against QPCTL [1], at QPCTL [2] and at QPCT (rhQPCT) was less than 0.1 µM throughout.

For the compound `CN1CCC(Oc2ccc(-c3ccc(F)nc3)c(N3CCC(c4nncn4C)CC3)c2C#N)C1` (single isomer, unassigned) [Example 91, 3-(6-fluoropyridin-3-yl)-2-(4-(4-methyl-4H-1,2,4-triazol-3-yl)piperidin-1-yl)-6-((1-methylpyrrolidin-3-yl)oxy)benzonitrile], the IC50 is 0.1 to 1 µM against QPCTL [1], less than 0.1 µM at QPCTL [2] and less than 0.1 µM at QPCT (rhQPCT).

In the case of `Cn1cnnc1C1CCN(c2c(-c3ccc(F)nc3)ccc(-c3cnn(C4CCNCC4)c3)c2C#N)CC1` [Example 42, 3-(6-fluoropyridin-3-yl)-2-(4-(4-methyl-4H-1,2,4-triazol-3-yl)piperidin-1-yl)-6-(1-(piperidin-4-yl)-1H-pyrazol-4-yl)benzonitrile], the IC50 is 0.1 to 1 µM at QPCTL [1], less than 0.1 µM on QPCTL [2] and less than 0.1 µM on QPCT (rhQPCT).

Regarding `Cn1ccc(-c2ccc(-c3ccc(F)nc3)c(N3CCC(c4nncn4C)CC3)c2C#N)n1` [Example 43, 3-(6-fluoropyridin-3-yl)-6-(1-methyl-1H-pyrazol-3-yl)-2-(4-(4-methyl-4H-1,2,4-triazol-3-yl)piperidin-1-yl)benzonitrile], the IC50 against QPCTL [1], at QPCTL [2] and on QPCT (rhQPCT) was less than 0.1 µM each time.

For the compound `Cn1cnnc1C1CCN(c2c(-c3ccc(F)nc3)ccc(-c3ccnc(N)c3)c2C#N)CC1` [Example 44, 6-(2-aminopyridin-4-yl)-3-(6-fluoropyridin-3-yl)-2-(4-(4-methyl-4H-1,2,4-triazol-3-yl)piperidin-1-yl)benzonitrile], the IC50 at QPCTL [1], on QPCTL [2] and at QPCT (rhQPCT) was less than 0.1 µM each time.

For the compound `Cn1cnnc1C1CCN(c2c(-c3ccc(F)nc3)ccc(-c3cc[nH]n3)c2C#N)CC1` [Example 45, 3-(6-fluoropyridin-3-yl)-2-(4-(4-methyl-4H-1,2,4-triazol-3-yl)piperidin-1-yl)-6-(1H-pyrazol-3-yl)benzonitrile], the IC50 on QPCTL [1], at QPCTL [2] and on QPCT (rhQPCT) was less than 0.1 µM in each case.

Regarding `Cc1cc(-c2cccc(C#N)c2N2CCC(c3nncn3C)CC2)cnn1` [Example 46, 2-(4-(4-methyl-4H-1,2,4-triazol-3-yl)piperidin-1-yl)-3-(6-methylpyridazin-4-yl)benzonitrile], the results for the IC50 against QPCTL [1], on QPCTL [2] and on QPCT (rhQPCT) were 0.1 to 1 µM, less than 0.1 µM and less than 0.1 µM, respectively.

In the case of `Cc1cc(-c2cccc(C#N)c2N2CCC(c3nncn3C)CC2)cnc1F` [Example 47, 3-(6-fluoro-5-methylpyridin-3-yl)-2-(4-(4-methyl-4H-1,2,4-triazol-3-yl)piperidin-1-yl)benzonitrile], the IC50 on QPCTL [1], on QPCTL [2] and at QPCT (rhQPCT) was less than 0.1 µM each time.

On to `Cc1cc(-c2ccc(-c3cnn(C)c3)c(C#N)c2N2CCC(c3nncn3C)CC2)cnn1` [Example 48, 6-(1-methyl-1H-pyrazol-4-yl)-2-(4-(4-methyl-4H-1,2,4-triazol-3-yl)piperidin-1-yl)-3-(6-methylpyridazin-4-yl)benzonitrile], for which the IC50 on QPCTL [1], on QPCTL [2] and at QPCT (rhQPCT) was less than 0.1 µM in each case.

On to `CN(C)CCNc1ccc(-c2ccc(F)nc2)c(N2CCC(c3nncn3C)CC2)c1C#N` [Example 51, 6-((2-(dimethylamino)ethyl)amino)-3-(6-fluoropyridin-3-yl)-2-(4-(4-methyl-4H-1,2,4-triazol-3-yl)piperidin-1-yl)benzonitrile], for which the IC50 on QPCTL [1] is 0.1 to 1 µM; on QPCTL [2], less than 0.1 µM; on QPCT (rhQPCT), less than 0.1 µM.

Regarding `CN(C)CCn1cc(-c2ccc(-c3ccc(F)nc3)c(N3CCC(c4nncn4C)CC3)c2C#N)cn1` [Example 60, 6-(1-(2-(dimethylamino)ethyl)-1H-pyrazol-4-yl)-3-(6-fluoropyridin-3-yl)-2-(4-(4-methyl-4H-1,2,4-triazol-3-yl)piperidin-1-yl)benzonitrile], the IC50 on QPCTL [1], on QPCTL [2] and on QPCT (rhQPCT) was less than 0.1 µM throughout.

For the compound `Cc1cc(-c2ccc(OCCN(C)C)c(C#N)c2N2CCC(c3nncn3C)CC2)cnn1` [Example 62, 6-(2-(dimethylamino)ethoxy)-2-(4-(4-methyl-4H-1,2,4-triazol-3-yl)piperidin-1-yl)-3-(6-methylpyridazin-4-yl)benzonitrile], the IC50 against QPCTL [1] is greater than 10 µM; on QPCTL [2], less than 0.1 µM; on QPCT (rhQPCT), 0.1 to 1 µM.

As for `Cn1cnnc1C1CCN(c2c(-c3ccc(F)nc3)ccc(-c3cnn(C4CC4)c3)c2C#N)CC1` [Example 63, 6-(1-cyclopropyl-1H-pyrazol-4-yl)-3-(6-fluoropyridin-3-yl)-2-(4-(4-methyl-4H-1,2,4-triazol-3-yl)piperidin-1-yl)benzonitrile], the IC50 against QPCTL [1], at QPCTL [2] and at QPCT (rhQPCT) was less than 0.1 µM in each case.

Regarding `Cn1cnnc1C1CCN(c2c(C#N)cc(F)cc2-c2ccc(F)nc2)CC1` [Example 130, 5-fluoro-3-(6-fluoropyridin-3-yl)-2-(4-(4-methyl-4H-1,2,4-triazol-3-yl)piperidin-1-yl)benzonitrile], the IC50 at QPCTL [2] and at QPCT (rhQPCT) was 1 to 10 µM each time.

`Cn1ccc(-c2cc(F)c(-c3ccc(F)nc3)c(N3CCC(c4nncn4C)CC3)c2C#N)n1` [Example 131, 4-fluoro-3-(6-fluoropyridin-3-yl)-6-(1-methyl-1H-pyrazol-3-yl)-2-(4-(4-methyl-4H-1,2,4-triazol-3-yl)piperidin-1-yl)benzonitrile]: the half-inhibitory concentration (IC50) was 1 to 10 µM on QPCTL [2] and 0.1 to 1 µM at QPCT (rhQPCT).

For the compound `Cn1cnnc1C1CCN(c2c(C#N)c(C3CC3)cc(F)c2-c2ccc(F)nc2)CC1` [Example 135, 6-cyclopropyl-4-fluoro-3-(6-fluoropyridin-3-yl)-2-(4-(4-methyl-4H-1,2,4-triazol-3-yl)piperidin-1-yl)benzonitrile], the IC50 is 0.1 to 1 µM at QPCTL [2] and less than 0.1 µM on QPCT (rhQPCT).

As to `Cn1cnnc1N1CCN(c2c(C#N)ccnc2-c2ccc(F)nc2)CC1` [Example 136, 6′-fluoro-3-(4-(4-methyl-4H-1,2,4-triazol-3-yl)piperazin-1-yl)-[2,3′-bipyridine]-4-carbonitrile], the IC50 at QPCTL [2] and at QPCT (rhQPCT) was less than 0.1 µM each time.

Consider `COc1cnc(-c2ccc(F)nc2)c(N2CCC(c3nncn3C)CC2)c1C#N` [Example 137, 6′-fluoro-5-methoxy-3-(4-(4-methyl-4H-1,2,4-triazol-3-yl)piperidin-1-yl)-[2,3′-bipyridine]-4-carbonitrile], for which the IC50 on QPCTL [2] lay within 1 to 10 µM; at QPCT (rhQPCT), 0.1 to 1 µM.

With `Cn1ccc(-c2cnc(-c3ccc(F)nc3)c(N3CCC(c4nncn4C)CC3)c2C#N)n1` [Example 138, 6′-fluoro-5-(1-methyl-1H-pyrazol-3-yl)-3-(4-(4-methyl-4H-1,2,4-triazol-3-yl)piperidin-1-yl)-[2,3′-bipyridine]-4-carbonitrile], the concentration for half-maximal inhibition (IC50) was greater than 10 µM at QPCTL [2] and 1 to 10 µM on QPCT (rhQPCT).

On to `Cn1cc(-c2cnc(-c3ccc(F)nc3)c(N3CCC(c4nncn4C)CC3)c2C#N)cn1` [Example 139, 6′-fluoro-5-(1-methyl-1H-pyrazol-4-yl)-3-(4-(4-methyl-4H-1,2,4-triazol-3-yl)piperidin-1-yl)-[2,3′-bipyridine]-4-carbonitrile], for which the IC50 at QPCTL [2] was greater than 10 µM; at QPCT (rhQPCT), 0.1 to 1 µM.
